{"source": "paper PMC6609034", "about": "“Unraveling the role of the secretor antigen in human rotavirus attachment to histo-blood group antigens” (PLoS Pathogens, 2019)", "key": {"VP8* P[4]": {"system": "VP8* P[4]", "assay": "ELISA-like binding assay to biotinylated HBGAs", "set-up": "species or system human rotavirus", "conditions": "biotinylated PAA glycan 2 μg/ml, VP8* 10 μg/ml", "text": "(§1) A panel of biotinylated sugar antigens including Le^a, Le^b, Le^c (lacto-N-biose; LNB), H type-1, H type-2 and blood group A and B trisaccharides were purchased from Glyconz (Fig 1 and S1 Table). These glycans are biotinylated neoglyconjugates of a poly[N-(2-hydroxyethyl)acrylamide] (PAA) with a size from 30 to 50 KDa. This forms a flexible polymer ideal for a multivalent presentation of glycans. Immobilized streptavidin F96 black plates (Nunc) were coated with the biotinylated oligosaccharides (2 μg/ml) in milli-Q water and incubated during 1 hour at 37°C. After functionalization the plates were washed once with PBS containing 0.05% of Tween 20 (PBS-T) and the VP8* proteins were added (10 μg/ml) and incubated at 4°C overnight. After three washes with PBS-T, a rabbit polyclonal antibody anti GST (1:1,000) (Abcam) was added and the plates were incubated one hour at 37°C. Then, the plates were washed three times with PBS-T and incubated for 1 h at 37°C with 1:10,000 dilution of horseradish peroxidase (HRP)-conjugated goat anti-rabbit (Abcam). After three washes with PBS-T, the binding was detected using QuantaBlue reagent (ThermoFisher) kit, as recommended by the manufacturer. Fluorescence units were registered by a MultiScan microplate reader. All the binding assays were performed in triplicate."}, "VP8* P[8]": {"system": "VP8* P[8]", "assay": "ELISA-like binding assay to biotinylated HBGAs", "set-up": "species or system human rotavirus", "conditions": "biotinylated PAA glycan 2 μg/ml, VP8* 10 μg/ml", "text": "as §1"}, "VP8* P[25]": {"system": "VP8* P[25]", "assay": "ELISA-like binding assay to biotinylated HBGAs", "set-up": "species or system rotavirus", "conditions": "biotinylated PAA glycan 2 μg/ml, VP8* 10 μg/ml", "text": "as §1"}, "VP8* P[14]": {"system": "VP8* P[14]", "assay": "ELISA-like binding assay to biotinylated HBGAs", "set-up": "species or system human rotavirus", "conditions": "biotinylated PAA glycan 2 μg/ml, VP8* 10 μg/ml", "text": "as §1"}, "VP8* P[9]": {"system": "VP8* P[9]", "assay": "ELISA-like binding assay to biotinylated HBGAs", "set-up": "species or system human rotavirus", "conditions": "biotinylated PAA glycan 2 μg/ml, VP8* 10 μg/ml", "text": "as §1"}, "[1]": {"system": "VP8* P[8]c binding to the H1 antigen", "assay": "Binding blocking assay, immobilized H1 antigen", "set-up": "species or system human rotavirus", "conditions": "soluble sugar at 20 mM", "description": "(§2) To confirm the binding of the VP8* from the P[8] genotype to the H type-1 precursor LNB, a blocking assay was performed using soluble LNB and its related disaccharide galacto-N-biose (Gal-β-1,3-GalNAc; GNB) produced and purified in our laboratory as previously described.\n(§3) Streptavidin microtiter plates were coated with biotinylated H type-1 antigen or LNB at 2 μg/ml with water and incubated for 1 hour at 37°C, followed by an overnight incubation at 4°C. Blocking assays were performed in parallel, using glass tubes containing the P[8]c and P[8]Wa VP8* protein at their EC50 for each ligand and 20 mM of each of the soluble disaccharides (LNB and GNB) and monosaccharides (D-galactose, GlcNAc and GalNAc). A positive binding control without sugar was also included. The tubes containing the mixes of VP8* with sugars were maintained 1 hour at 37°C, followed by an overnight incubation at 4°C. The next day the coated streptavidin plates were washed with PBS-T, the VP8*-sugar solutions were added to the plates and incubated during 4 hours at 4°C. The plates were washed three times with PBS-T and detection of the interactions was performed as described above. The results are presented as the percentage (%) of binding of each condition compared to the binding of the positive binding control (without blocking sugar). All experiments were performed in triplicate."}, "[2]": {"system": "VP8* P[8]c binding to LNB", "assay": "Binding blocking assay, immobilized LNB", "set-up": "species or system human rotavirus", "conditions": "soluble sugar at 20 mM", "description": "as §2, §3"}, "VP8* P[11]": {"system": "VP8* P[11]", "assay": "ELISA-like binding assay to biotinylated HBGAs", "set-up": "species or system rotavirus", "conditions": "biotinylated PAA glycan 2 μg/ml, VP8* 10 μg/ml", "text": "as §1"}}, "data": [{"compound": "Fuc-α1,2-Gal-β1,3-[Fuc-α1,4-]GlcNAc [Lewis^b]", "values": [{"measurement": "binding (ELISA-like)", "setting": "VP8* P[4]", "value": "very low or absence of binding"}, {"measurement": "binding (ELISA-like)", "setting": "VP8* P[8]", "value": "very low or absence of binding"}]}, {"compound": "GlcNAc-α1,3-(Fucα1,2)-Gal [Atri]", "values": [{"measurement": "binding (ELISA-like)", "setting": "VP8* P[25]", "value": "recognized"}, {"measurement": "binding (ELISA-like)", "setting": "VP8* P[14]", "value": "recognized"}, {"measurement": "binding (ELISA-like)", "setting": "VP8* P[8]", "value": "low binding"}, {"measurement": "binding (ELISA-like)", "setting": "VP8* P[9]", "value": "recognized"}]}, {"compound": "C[C@H](O)[C@@H](O)[C@@H](O)[C@H](O)C=O", "note": "[L-fucose]", "values": [{"measurement": "effect on the binding of VP8* to the H1 antigen", "setting": "[1]", "value": "significantly increased the binding"}]}, {"compound": "CC(=O)N[C@H]1C(O)O[C@H](CO)[C@H](O)[C@@H]1O[C@@H]1O[C@H](CO)[C@H](O)[C@H](O)[C@H]1O", "note": "(stereo partly drawn) [GNB, Gal-β1,3-GalNAc]", "values": [{"measurement": "reduction in the binding to the H1 antigen", "setting": "[1]", "value": 30.1, "unit": "%"}, {"measurement": "reduction of the binding of VP8* P[8]c to LNB", "setting": "[2]", "value": 44.1, "unit": "%"}]}, {"compound": "CC(=O)NC1C(O)OC(CO)C(OC2OC(CO)C(O)C(O)C2OC2OC(C)C(O)C(O)C2O)C1O", "note": "(stereo not drawn) [H2, Fuc-α1,2-Gal-β1,4-GlcNAc]", "values": [{"measurement": "binding (ELISA-like)", "setting": "VP8* P[11]", "value": "recognized"}]}, {"compound": "O=C[C@H](O)[C@@H](O)[C@@H](O)[C@H](O)CO", "note": "[D-galactose]", "values": [{"measurement": "reduction in the binding to the H1 antigen", "setting": "[1]", "value": 14.7, "unit": "%"}]}]}
